# Test results: patent US6821981B2, “Azaheterocyclylmethyl derivatives of 2,3-dihydro-1,4-dioxino[2,3-f]-quinoline as 5-HT1A antagonists” (Wyeth, priority 2001, dated 2004)
# Structures can show the parent of a compound that is named as a salt. Where two headings read alike, the source gives them in different places.
# Key:
# [1] = molecular target: T1, human 5-HT1A receptors (Homo sapiens, UniProt P08908); assay: [3H] 8-OH-DPAT displacement from 5-HT1A receptor; type: binding
# T1 construct: expressed in transfected cells; host or cells: CHO cells
# T1 sequence (P08908 1-422): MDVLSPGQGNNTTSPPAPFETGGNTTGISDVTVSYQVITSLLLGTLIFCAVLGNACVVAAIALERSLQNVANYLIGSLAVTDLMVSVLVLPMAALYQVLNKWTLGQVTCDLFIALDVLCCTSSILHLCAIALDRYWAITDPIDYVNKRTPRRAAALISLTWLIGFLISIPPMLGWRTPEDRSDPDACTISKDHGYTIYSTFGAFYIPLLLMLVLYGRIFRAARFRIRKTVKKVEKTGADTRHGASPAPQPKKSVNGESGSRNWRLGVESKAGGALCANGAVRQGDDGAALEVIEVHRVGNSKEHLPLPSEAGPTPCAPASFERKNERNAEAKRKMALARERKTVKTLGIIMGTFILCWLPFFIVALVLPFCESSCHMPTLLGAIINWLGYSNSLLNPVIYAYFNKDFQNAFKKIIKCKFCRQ
# Source text: High affinity for the serotonin 5-HT1A receptor was established by testing the claimed compound's ability to displace [^3H] 8-OH-DPAT (dipropylaminotetralin) from the 5-HT1A serotonin receptor following a modification of the procedure of Hall et al., J. Neurochem. 44, 1685 (1985) which utilizes CHO cells stably transfected with human 5-HT1A receptors.
# [2] = molecular target: T2, cloned human 5-HT1A receptors (Homo sapiens, UniProt P08908); assay: 35S-GTPγS binding assay, antagonist activity versus 8-OH-DPAT; type: biochemical; details: for 5-HT1A Function Imax (maximum inhibitory effect): value in parentheses after IC50
# T2 construct: expressed in transfected cells
# T2 sequence (P08908 1-422): T1 sequence (P08908 1-422)
# Method: Antagonist activity at 5-HT1A receptors was established by using a ^35S-GTPγS binding assay similar to that used by Lazareno and Birdsall (Br. J. Pharmacol. 109: 1120, 1993), in which the test compound's ability to affect the binding of ^35S-GTPγS to membranes containing cloned human 5-HT1A receptors was determined. Agonists produce an increase in binding whereas antagonists produce no increase but rather reverse the effects of the standard agonist 8-OH-DPAT. The test compound's maximum inhibitory effect is represented as the Imax, while its potency is defined by the IC50.
# [3] = CHO cells stably transfected with human 5-HT1A receptors, [3H] 8-OH-DPAT, read-out: 5-HT1A Receptor Affinity KI
# [4] = reversal of the effects of the standard agonist 8-OH-DPAT on 35S-GTPγS binding, read-out: 5-HT1A Function IC50
Structure (SMILES),melting point [°C],"Ki [1, 3] [nM]",also measured
"Cc1ccc2c3c(ccc2n1)OCC(CN1CCC2(CC1)C(=O)NCN2c1ccccc1)O3 (stereo not shown) (as salt: fumarate) (hydrate or solvate) [Example 2, 8-{[8-Methyl-2,3-dihydro[1,4]dioxino[2,3-f]quinolin-2-yl]methyl}-1-phenyl-1,3,8-triazaspiro[4.5]decan-4-one]",199 to 201,,
"Cc1ccc2c3c(ccc2n1)OC[C@H](CN1CCC(n2c(=O)[nH]c4ccccc42)CC1)O3 (as salt: fumarate) (hydrate or solvate) [Example 3, 1-(1-{[8-Methyl-2,3-dihydro[1,4]dixino[2,3-f]quinlin-2-yl]methyl}piperidin-4-yl)-1,3-dihydro-2H-benzimidazol-2-one]",194 to 196,,
"Cc1ccc2c3c(ccc2n1)OCC(CN1CCC(C(=O)c2ccc(F)cc2)CC1)O3 (stereo not shown) (as salt: fumarate) (hydrate or solvate) [Example 5, (4-Fluorophenyl)(1-{[8-methyl-2,3-dihydro[1,4]dioxino[2,3-f]quinolin-2-yl]methyl}-4-piperidinyl)methanone]",206 to 207,,
"Cc1ccc2c3c(ccc2n1)OCC(CN1CCC(O)(c2cccc(C(F)(F)F)c2)CC1)O3 (stereo not shown) (as salt: fumarate) (hydrate or solvate) [Example 6, 1-{[8-Methyl-2,3-dihydro[1,4]dioxino[2,3-f]quinolin-2-yl]methyl}-4-[3-(trifluoromethyl)phenyl]-4-piperidinol]",133 to 135,,
"Cc1ccc2c3c(ccc2n1)OCC(CN1CC=C(c2ccccc2)CC1)O3 (stereo not shown) (as salt: fumarate) (hydrate or solvate) [Example 8, 8-Methyl-2-{[4-phenyl-3,6-dihydro-1(2H)-pyridinyl]methyl}-2,3-dihydro[1,4]dioxino[2,3-f]quinoline]",185 to 188,,
"CCc1ccc2c3c(ccc2n1)OCC(CN1CCC2(CC1)C(=O)NCN2c1ccccc1)O3 (stereo not shown) (as salt: fumarate) (hydrate or solvate) [Example 9, 8-{[8-Ethyl-2,3-dihydro[1,4]dioxino[2,3-f]quinolin-2-yl]methyl}-1-phenyl-1,3,8-triazaspiro[4.5]decan-4-one]",207 to 209,,
"O=C1NCN(c2ccccc2)C12CCN(CC1COc3ccc4ncccc4c3O1)CC2 (stereo not shown) (as salt: fumarate) [Example 1, 8-[2,3-Dihydro[1,4]dioxino[2,3-f]quinolin-2-ylmethyl]-1-phenyl-1,3,8-triazaspiro[4.5]decan-4-one]",170,,
"Cc1ccc2c3c(ccc2n1)OCC(CN1CCCCC1)O3 (stereo not shown) (as salt: hydrochloride) (hydrate or solvate) [Example 4, 8-Methyl-2-(piperidin-1-ylmethyl)-2,3-dihydro[1,4]dioxino[2,3-f]quinoline]",278 to 280,,
"Cc1ccc2c3c(ccc2n1)OCC(CN1CCC(C#N)(c2ccccc2)CC1)O3 (stereo not shown) (as salt: salt) [Example 7, 1-{[8-Methyl-2,3-dihydro[1,4]dioxino[2,3-f]quinolin-2-yl]methyl}-4-phenyl-4-piperidinecarbonitrile]",185 to 187,,
"O=C1NCN(c2ccccc2)C12CCN(CC1COc3ccc4ncccc4c3O1)CC2 (stereo not shown) [Example 1, 8-[2,3-Dihydro[1,4]dioxino[2,3-f]quinolin-2-ylmethyl]-1-phenyl-1,3,8-triazaspiro[4.5]decan-4-one]",,1.44,"IC50 [2, 4]: 55 nM; 5-HT1A Function Imax (maximum inhibitory effect) [2]: 100"
"Cc1ccc2c3c(ccc2n1)OCC(CN1CCC2(CC1)C(=O)NCN2c1ccccc1)O3 (stereo not shown) [Example 2, 8-{[8-Methyl-2,3-dihydro[1,4]dioxino[2,3-f]quinolin-2-yl]methyl}-1-phenyl-1,3,8-triazaspiro[4.5]decan-4-one]",,1.79,"IC50 [2, 4]: 64 nM; 5-HT1A Function Imax (maximum inhibitory effect) [2]: 100"
"Cc1ccc2c3c(ccc2n1)OC[C@H](CN1CCC(n2c(=O)[nH]c4ccccc42)CC1)O3 [Example 3, 1-(1-{[8-Methyl-2,3-dihydro[1,4]dixino[2,3-f]quinlin-2-yl]methyl}piperidin-4-yl)-1,3-dihydro-2H-benzimidazol-2-one]",,3.08,"IC50 [2, 4]: 66 nM; 5-HT1A Function Imax (maximum inhibitory effect) [2]: 85.0"
"Cc1ccc2c3c(ccc2n1)OCC(CN1CCCCC1)O3 (stereo not shown) [Example 4, 8-Methyl-2-(piperidin-1-ylmethyl)-2,3-dihydro[1,4]dioxino[2,3-f]quinoline]",,51,"IC50 [2, 4]: 483 nM; 5-HT1A Function Imax (maximum inhibitory effect) [2]: 100"
"Cc1ccc2c3c(ccc2n1)OCC(CN1CCC(C(=O)c2ccc(F)cc2)CC1)O3 (stereo not shown) [Example 5, (4-Fluorophenyl)(1-{[8-methyl-2,3-dihydro[1,4]dioxino[2,3-f]quinolin-2-yl]methyl}-4-piperidinyl)methanone]",,18.5,
"Cc1ccc2c3c(ccc2n1)OCC(CN1CCC(O)(c2cccc(C(F)(F)F)c2)CC1)O3 (stereo not shown) [Example 6, 1-{[8-Methyl-2,3-dihydro[1,4]dioxino[2,3-f]quinolin-2-yl]methyl}-4-[3-(trifluoromethyl)phenyl]-4-piperidinol]",,6.94,
"Cc1ccc2c3c(ccc2n1)OCC(CN1CCC(C#N)(c2ccccc2)CC1)O3 (stereo not shown) [Example 7, 1-{[8-Methyl-2,3-dihydro[1,4]dioxino[2,3-f]quinolin-2-yl]methyl}-4-phenyl-4-piperidinecarbonitrile]",,,Ki [1]: 76.1 nM; IC50 [2]: 445 nM; 5-HT1A Function Imax (maximum inhibitory effect) [2]: 50
"Cc1ccc2c3c(ccc2n1)OCC(CN1CC=C(c2ccccc2)CC1)O3 (stereo not shown) [Example 8, 8-Methyl-2-{[4-phenyl-3,6-dihydro-1(2H)-pyridinyl]methyl}-2,3-dihydro[1,4]dioxino[2,3-f]quinoline]",,7.91,
"CCc1ccc2c3c(ccc2n1)OCC(CN1CCC2(CC1)C(=O)NCN2c1ccccc1)O3 (stereo not shown) [Example 9, 8-{[8-Ethyl-2,3-dihydro[1,4]dioxino[2,3-f]quinolin-2-yl]methyl}-1-phenyl-1,3,8-triazaspiro[4.5]decan-4-one]",,2.79,
